Counter-ions that a name gives are not always drawn.
How the values were obtained:
Type in all cases: biochemical
SYK = molecular target: T1, SYK (Homo sapiens, UniProt P43405); test: in vitro radiometric kinase assay at […] BAY61-3606 (Fig 3B)
T1 construct: Full length His-tagged protein

IKKα = molecular target: T2, IKKα (Homo sapiens, UniProt O15111); test: in vitro radiometric kinase assay ([γ-33P-ATP], KinaseProfiler), dose response
T2 construct: gene CHUK; Full length GST-tagged protein
T2 sequence (O15111 1-745): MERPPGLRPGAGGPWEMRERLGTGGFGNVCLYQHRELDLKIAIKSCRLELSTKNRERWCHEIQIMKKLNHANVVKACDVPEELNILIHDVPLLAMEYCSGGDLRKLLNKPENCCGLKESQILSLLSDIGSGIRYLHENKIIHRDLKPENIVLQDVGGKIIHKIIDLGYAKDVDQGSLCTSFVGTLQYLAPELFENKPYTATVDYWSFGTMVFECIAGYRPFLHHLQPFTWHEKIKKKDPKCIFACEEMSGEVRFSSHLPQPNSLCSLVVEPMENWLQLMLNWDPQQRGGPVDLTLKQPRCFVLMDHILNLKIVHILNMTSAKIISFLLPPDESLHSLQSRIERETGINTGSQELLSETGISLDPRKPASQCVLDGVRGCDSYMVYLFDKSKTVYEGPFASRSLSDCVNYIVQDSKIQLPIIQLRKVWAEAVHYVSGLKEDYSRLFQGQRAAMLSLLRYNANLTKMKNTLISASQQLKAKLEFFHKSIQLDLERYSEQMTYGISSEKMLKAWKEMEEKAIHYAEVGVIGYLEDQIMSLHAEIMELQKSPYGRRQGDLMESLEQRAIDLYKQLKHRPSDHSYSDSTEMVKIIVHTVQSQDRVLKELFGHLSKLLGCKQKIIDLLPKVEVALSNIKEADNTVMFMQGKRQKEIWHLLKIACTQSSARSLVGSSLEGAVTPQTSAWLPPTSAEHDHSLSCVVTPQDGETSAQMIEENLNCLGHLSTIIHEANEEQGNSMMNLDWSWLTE

[1] = molecular target: T3, GCK (germinal center kinase, MAP4K2) (Homo sapiens, UniProt Q12851); test: in vitro radiometric kinase assay at […] BAY61-3606 (Fig 3B)
T3 construct: Residues 1–473 glutathione-s-transferase (GST) tagged protein
T3 sequence (Q12851 1-473): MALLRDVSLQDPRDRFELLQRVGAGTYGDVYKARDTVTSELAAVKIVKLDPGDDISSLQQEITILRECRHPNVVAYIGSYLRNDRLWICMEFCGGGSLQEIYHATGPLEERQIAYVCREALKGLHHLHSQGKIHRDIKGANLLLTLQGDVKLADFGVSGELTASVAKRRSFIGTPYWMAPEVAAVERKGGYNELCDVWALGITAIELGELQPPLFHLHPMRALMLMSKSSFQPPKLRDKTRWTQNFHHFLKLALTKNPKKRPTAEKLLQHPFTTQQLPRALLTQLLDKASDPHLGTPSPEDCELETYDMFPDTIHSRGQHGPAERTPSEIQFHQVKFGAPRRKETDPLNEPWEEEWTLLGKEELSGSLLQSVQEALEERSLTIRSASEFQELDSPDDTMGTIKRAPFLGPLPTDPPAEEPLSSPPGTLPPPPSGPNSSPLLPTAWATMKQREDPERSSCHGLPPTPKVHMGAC

`COc1ccc(-c2cc3nccn3c(Nc3ncccc3C(N)=O)n2)cc1OC` [BAY61-3606, 2-[7-(3,4-dimethoxyphenyl)-imidazo[1,2-c]pyrimidin-5-ylamino]nicotinamide dihydrochloride] was tested. Which “in vitro radiometric kinase assay at 10 μM BAY61-3606 (Fig 3B)” value (SYK) did it give?
Its value is “We observed that BAY61-3606 is a potent inhibitor of SYK, GCK and IKKα, but not IKKβ or LYN”.

What about the IC50 (IKKα) of the same molecule?
Its IC50 is 45 nM.

What about the “in vitro radiometric kinase assay at 10 μM BAY61-3606 (Fig 3B)” value [1] of the same molecule?
Its value is “We observed that BAY61-3606 is a potent inhibitor of SYK, GCK and IKKα, but not IKKβ or LYN”.

Source: article PMC4773098, “Inhibition of IKKα by BAY61-3606 Reveals IKKα-Dependent Histone H3 Phosphorylation in Human Cytomegalovirus Infected Cells” (PLoS ONE, 2016)
